According to patent publication US9096602B2, “Substituted pyrrolo[2,3-B]pyrazines as ATR kinase inhibitors” (Vertex Pharmaceuticals Incorporated, priority 2011, dated 2015):
Like-named read-outs stand apart in the source and are kept apart here.

Biological target: T1, ATR kinase (full-length ATR) (Homo sapiens, UniProt Q13535)
T1 construct: Assays were carried out at 25° C. in the presence of 5 nM full-length ATR
Experiment: ATR Inhibition Assay (radioactive-phosphate incorporation)
Type: biochemical
Settings: Ki(app), 5 nM full-length ATR, 10 μM ATP, 800 μM target peptide, 25° C., read-out: ATR Inhibition Ki
Summary of the method: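 Radiometric 33P filter assay with 5 nM full-length ATR in 50 mM Tris/HCl pH 7.5, 10 mM MgCl2, 1 mM DTT at 25 °C. Final 10 μM [γ-33P]ATP and 800 μM peptide; 10 min compound preincubation, ATP start, stopped at 24 h with phosphoric acid/ATP. Ki(app) from non-linear regression of background-corrected initial rates.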

[1] = given as numeric lower bound without unit

T1 sequence (Q13535 whole entry): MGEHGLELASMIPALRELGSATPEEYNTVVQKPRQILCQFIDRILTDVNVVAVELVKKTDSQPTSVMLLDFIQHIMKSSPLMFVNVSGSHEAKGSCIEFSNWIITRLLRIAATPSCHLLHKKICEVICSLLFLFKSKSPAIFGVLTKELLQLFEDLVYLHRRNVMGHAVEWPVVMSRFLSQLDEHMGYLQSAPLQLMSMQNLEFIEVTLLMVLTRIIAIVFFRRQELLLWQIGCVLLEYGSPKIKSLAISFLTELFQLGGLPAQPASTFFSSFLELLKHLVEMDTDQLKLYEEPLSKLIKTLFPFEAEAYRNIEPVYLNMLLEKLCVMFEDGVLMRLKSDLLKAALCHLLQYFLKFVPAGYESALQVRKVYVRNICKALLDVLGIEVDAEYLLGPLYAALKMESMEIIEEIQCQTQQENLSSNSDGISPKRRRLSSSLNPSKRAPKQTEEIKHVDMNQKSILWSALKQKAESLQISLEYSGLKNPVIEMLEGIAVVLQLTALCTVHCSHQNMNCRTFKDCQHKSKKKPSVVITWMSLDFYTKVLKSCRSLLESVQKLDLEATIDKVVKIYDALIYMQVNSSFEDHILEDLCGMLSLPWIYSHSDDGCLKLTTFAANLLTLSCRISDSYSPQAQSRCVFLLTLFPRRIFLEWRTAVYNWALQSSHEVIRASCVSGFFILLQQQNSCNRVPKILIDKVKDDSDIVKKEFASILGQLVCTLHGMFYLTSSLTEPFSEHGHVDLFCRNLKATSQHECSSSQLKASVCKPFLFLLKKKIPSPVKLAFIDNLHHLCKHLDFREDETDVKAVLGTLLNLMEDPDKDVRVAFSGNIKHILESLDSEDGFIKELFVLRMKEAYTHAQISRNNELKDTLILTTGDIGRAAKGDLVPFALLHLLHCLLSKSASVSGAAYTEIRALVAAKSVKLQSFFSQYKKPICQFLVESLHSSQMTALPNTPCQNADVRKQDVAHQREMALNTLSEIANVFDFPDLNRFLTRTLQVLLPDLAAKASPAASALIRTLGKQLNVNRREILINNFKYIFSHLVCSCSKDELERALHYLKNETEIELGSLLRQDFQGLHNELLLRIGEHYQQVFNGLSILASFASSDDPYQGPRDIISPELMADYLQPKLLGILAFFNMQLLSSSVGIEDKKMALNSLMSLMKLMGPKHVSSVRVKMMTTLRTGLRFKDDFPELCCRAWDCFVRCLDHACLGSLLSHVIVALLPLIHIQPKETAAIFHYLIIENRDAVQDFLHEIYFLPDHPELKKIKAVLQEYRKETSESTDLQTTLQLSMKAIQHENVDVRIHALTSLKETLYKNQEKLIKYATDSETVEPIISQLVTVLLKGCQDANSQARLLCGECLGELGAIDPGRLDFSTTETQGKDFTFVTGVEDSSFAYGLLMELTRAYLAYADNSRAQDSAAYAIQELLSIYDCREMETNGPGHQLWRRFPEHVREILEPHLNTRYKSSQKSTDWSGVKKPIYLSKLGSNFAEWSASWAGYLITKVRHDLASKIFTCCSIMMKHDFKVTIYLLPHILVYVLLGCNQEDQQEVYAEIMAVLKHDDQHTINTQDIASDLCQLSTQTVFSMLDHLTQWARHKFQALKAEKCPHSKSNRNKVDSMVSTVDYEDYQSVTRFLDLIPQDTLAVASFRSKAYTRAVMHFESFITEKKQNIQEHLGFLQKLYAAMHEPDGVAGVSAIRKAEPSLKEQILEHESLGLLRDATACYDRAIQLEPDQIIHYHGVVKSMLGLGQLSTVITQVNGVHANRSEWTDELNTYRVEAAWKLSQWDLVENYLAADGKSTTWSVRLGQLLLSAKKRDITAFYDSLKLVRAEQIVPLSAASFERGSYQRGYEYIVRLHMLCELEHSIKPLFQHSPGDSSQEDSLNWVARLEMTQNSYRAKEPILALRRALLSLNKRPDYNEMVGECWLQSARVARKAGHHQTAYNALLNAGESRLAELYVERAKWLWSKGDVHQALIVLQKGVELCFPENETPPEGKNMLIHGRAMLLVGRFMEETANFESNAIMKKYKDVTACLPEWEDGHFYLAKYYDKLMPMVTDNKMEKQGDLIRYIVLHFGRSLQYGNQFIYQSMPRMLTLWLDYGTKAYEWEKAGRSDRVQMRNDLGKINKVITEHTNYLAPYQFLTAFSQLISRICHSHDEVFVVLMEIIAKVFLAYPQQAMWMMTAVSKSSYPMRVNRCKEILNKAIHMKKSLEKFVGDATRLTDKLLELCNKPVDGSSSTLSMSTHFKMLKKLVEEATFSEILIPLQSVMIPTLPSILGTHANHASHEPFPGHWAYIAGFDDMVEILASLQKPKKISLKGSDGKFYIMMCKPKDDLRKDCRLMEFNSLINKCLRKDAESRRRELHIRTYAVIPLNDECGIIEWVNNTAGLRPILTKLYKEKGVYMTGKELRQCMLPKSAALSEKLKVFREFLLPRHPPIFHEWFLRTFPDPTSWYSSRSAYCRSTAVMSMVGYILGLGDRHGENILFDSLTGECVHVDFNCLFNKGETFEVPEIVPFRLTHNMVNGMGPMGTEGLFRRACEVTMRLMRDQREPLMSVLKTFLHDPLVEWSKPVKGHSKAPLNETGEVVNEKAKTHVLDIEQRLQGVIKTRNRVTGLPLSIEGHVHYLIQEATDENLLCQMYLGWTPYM

Row | SMILES | Ki (class symbols) [nM] | Ki [1] [nM]
1 | CC(C)S(=O)(=O)c1ccc(-c2cnc3[nH]cc(C(=O)NC(CO)c4ccccc4)c3n2)cc1 (centres unmarked) [Compound I-42, N-(2-hydroxy-1-phenyl-ethyl)-2-(4-isopropylsulfonylphenyl)-5H-pyrrolo[2,3-b]pyrazine-7-carboxamide] | < 100 | 
2 | Cc1ccc(CNC(=O)c2c[nH]c3ncc(-c4ccc(S(=O)(=O)C(C)C)cc4)nc23)c(C)c1 [Compound I-82, N-[(2,4-dimethylphenyl)methyl]-2-(4-isopropylsulfonylphenyl)-5H-pyrrolo[2,3-b]pyrazine-7-carboxamide] | < 100 | 
3 | CC(C)S(=O)(=O)c1ccc(-c2cnc3[nH]cc(C(=O)N4CCCc5ccccc54)c3n2)cc1 [Compound I-27, 3,4-dihydro-2H-quinolin-1-yl-[2-(4-isopropylsulfonylphenyl)-5H-pyrrolo[2,3-b]pyrazin-7-yl]methanone] | 100 to 500 | 
4 | CC(C)S(=O)(=O)c1ccc(-c2cnc3[nH]cc(C(=O)NCC4CCCO4)c3n2)cc1 (centres unmarked) [Compound I-63, 2-(4-isopropylsulfonylphenyl)-N-(tetrahydrofuran-2-ylmethyl)-5H-pyrrolo[2,3-b]pyrazine-7-carboxamide] | < 100 | 
5 | CC(c1ccc(Cl)cc1)N(C)C(=O)c1c[nH]c2ncc(-c3ccc(S(=O)(=O)C(C)C)cc3)nc12 (centres unmarked) [Compound I-135, N-[1-(4-chlorophenyl)ethyl]-2-(4-isopropylsulfonylphenyl)-N-methyl-5H-pyrrolo[2,3-b]pyrazine-7-carboxamide] | < 100 | 
6 | COCCNC(=O)c1c[nH]c2ncc(-c3ccc(S(=O)(=O)C(C)C)cc3)nc12 [Compound I-119, 2-(4-isopropylsulfonylphenyl)-N-(2-methoxyethyl)-5H-pyrrolo[2,3-b]pyrazine-7-carboxamide] | 100 to 500 | 
7 | CC(C)S(=O)(=O)c1ccc(-c2cnc3[nH]cc(C(=O)N4CCC(CO)CC4)c3n2)cc1 [Compound I-32, [4-(hydroxymethyl)-1-piperidyl]-[2-(4-isopropylsulfonylphenyl)-5H-pyrrolo[2,3-b]pyrazin-7-yl]methanone] |  | > 4000
8 | CC(c1ccccc1F)N(C)C(=O)c1c[nH]c2ncc(-c3ccc(S(=O)(=O)C(C)C)cc3)nc12 (centres unmarked) [Compound I-109, N-[1-(2-fluorophenyl)ethyl]-2-(4-isopropylsulfonylphenyl)-N-methyl-5H-pyrrolo[2,3-b]pyrazine-7-carboxamide] | 500 to 5000 | 
9 | CC(C)S(=O)(=O)c1ccc(-c2cnc3[nH]cc(C(=O)Nc4ccccc4)c3n2)cc1 [Compound I-2, 2-(4-isopropylsulfonylphenyl)-N-phenyl-5H-pyrrolo[2,3-b]pyrazine-7-carboxamide] | < 100 | 
10 | CC(C)S(=O)(=O)c1ccc(-c2cnc3[nH]cc(C(=O)N4CCN(C(=O)OC(C)(C)C)CC4)c3n2)cc1 [Compound I-132, tert-butyl 4-[2-(4-isopropylsulfonylphenyl)-5H-pyrrolo[2,3-b]pyrazine-7-carbonyl]piperazine-1-carboxylate] |  | > 2500
11 | CC(C)S(=O)(=O)c1ccc(-c2cnc3[nH]cc(C(=O)Nc4cccc(C#N)c4)c3n2)cc1 [Compound I-13, N-(3-cyanophenyl)-2-(4-isopropylsulfonylphenyl)-5H-pyrrolo[2,3-b]pyrazine-7-carboxamide] | 100 to 500 | 
12 | CCN(C(=O)c1c[nH]c2ncc(-c3ccc(S(=O)(=O)C(C)C)cc3)nc12)C1CCCCC1 [Compound I-95, N-cyclohexyl-N-ethyl-2-(4-isopropylsulfonylphenyl)-5H-pyrrolo[2,3-b]pyrazine-7-carboxamide] | 500 to 5000 | 
13 | CCC(CC)NC(=O)c1c[nH]c2ncc(-c3ccc(S(=O)(=O)C(C)C)cc3)nc12 [Compound I-107, N-(1-ethylpropyl)-2-(4-isopropylsulfonylphenyl)-5H-pyrrolo[2,3-b]pyrazine-7-carboxamide] | 500 to 5000 | 
14 | CC(C)S(=O)(=O)c1ccc(-c2cnc3[nH]cc(C(=O)N4CC5CCC(C4)O5)c3n2)cc1 [Compound I-116, [2-(4-isopropylsulfonylphenyl)-5H-pyrrolo[2,3-b]pyrazin-7-yl]-(8-oxa-3-azabicyclo[3.2.1]octan-3-yl)methanone] |  | > 1000
15 | CC(C)S(=O)(=O)c1ccc(-c2cnc3[nH]cc(C(=O)N[C@H]4c5ccccc5C[C@H]4O)c3n2)cc1 [Compound I-69, N-[(1S,2R)-2-hydroxyindan-1-yl]-2-(4-isopropylsulfonylphenyl)-5H-pyrrolo[2,3-b]pyrazine-7-carboxamide] | < 100 | 
16 | CC(C)S(=O)(=O)c1ccc(-c2cnc3[nH]cc(C(=O)NC4CNC4)c3n2)cc1 [Compound I-122, N-(azetidin-3-yl)-2-(4-isopropylsulfonylphenyl)-5H-pyrrolo[2,3-b]pyrazine-7-carboxamide] | 500 to 5000 | 
17 | CC(C)S(=O)(=O)c1ccc(-c2cnc3[nH]cc(C(=O)N4CCC(N(C)C)CC4)c3n2)cc1 [Compound I-99, [4-(dimethylamino)-1-piperidyl]-[2-(4-isopropylsulfonylphenyl)-5H-pyrrolo[2,3-b]pyrazin-7-yl]methanone] |  | > 4000
18 | CC(C)S(=O)(=O)c1ccc(-c2cnc3[nH]cc(C(=O)N4CCOCC4)c3n2)cc1 [Compound I-120, [2-(4-isopropylsulfonylphenyl)-5H-pyrrolo[2,3-b]pyrazin-7-yl]-morpholino-methanone] |  | > 2500
19 | CC(C)S(=O)(=O)c1ccc(-c2cnc3[nH]cc(C(=O)N4CCc5ccccc54)c3n2)cc1 [Compound I-7, indolin-1-yl-[2-(4-isopropylsulfonylphenyl)-5H-pyrrolo[2,3-b]pyrazin-7-yl]methanone] | 100 to 500 | 
20 | CC(C)S(=O)(=O)c1ccc(-c2cnc3[nH]cc(C(=O)N(CCO)C4CCCCC4)c3n2)cc1 [Compound I-121, N-cyclohexyl-N-(2-hydroxyethyl)-2-(4-isopropylsulfonylphenyl)-5H-pyrrolo[2,3-b]pyrazine-7-carboxamide] |  | > 1000
21 | CC(C)S(=O)(=O)c1ccc(-c2cnc3[nH]cc(C(=O)Nc4cc(C(C)(C)C)on4)c3n2)cc1 [Compound I-133, N-(5-tert-butylisoxazol-3-yl)-2-(4-isopropylsulfonylphenyl)-5H-pyrrolo[2,3-b]pyrazine-7-carboxamide] |  | > 40
22 | CC(C)S(=O)(=O)c1ccc(-c2cnc3[nH]cc(C(=O)N4CCCCC4)c3n2)cc1 [Compound I-39, [2-(4-isopropylsulfonylphenyl)-5H-pyrrolo[2,3-b]pyrazin-7-yl]-(1-piperidyl)methanone] |  | > 250
23 | CC(C)S(=O)(=O)c1ccc(-c2cnc3[nH]cc(C(=O)N[C@@H](C)c4ccccc4)c3n2)cc1 [Compound I-35, 2-(4-isopropylsulfonylphenyl)-N-[(1S)-1-phenylethyl]-5H-pyrrolo[2,3-b]pyrazine-7-carboxamide] | 500 to 5000 | 
